The values that follow come from patent US8470525B2, “Method for analyzing air” (priority 2011, dated 2013).

What all share (format): biochemical
Experiment [1] deals with T1, acetylcholinesterase enzyme (Homo sapiens, UniProt P22303). Kind of experiment: Air monitoring device: detection of aerosolized enzymatic substrate by fluorescence after enzyme addition. To be noted: Example 7, FIG. 11: indoxyl acetate solution 0.1 mg/ml aerosolized; 4 minute cycles; cycles three and four; clean air amplitude 500. Here is the method: Example 7 provides a method of this invention to detect other chemicals in the air. The device in this example was operated continuously in 4 minute cycles. Each cycle consists of a 2 minute second sampling period at a flow rate of 1 liter per minute, 5 second enzyme addition step, a 85 second reading period and a 30 second rinse step. The consumables/reagents consisted of a) 3 mg/ml acetylcholinesterase enzyme solution in buffer and b) 100 mM buffer at pH 7.0. This example used a polyethylene disk with a pore size of 15-45 um and a thickness of 1.6 mm as the impactor disk. The enzyme aerosol was generated using 5×500 ms pulses every second for 5 seconds total. The rinse step at conclusion of the cycle was accomplished by continuously aerosolizing buffer for about 30 seconds.
Specifically, indoxyl acetate solution was aerosolized into a plastic test chamber at a concentration of 0.1 mg/ml. […] The device indicated the presence of the target protein by an amplitude increase to at least 3,000 fluorescent units in cycles three and four compared to an amplitude of 500 in cycles one and two during the time clean air was sampled.

Experiment [2] addresses T1, acetylcholinesterase enzyme. The experiment is described as follows: Enzyme-based air monitoring device: detection of cholinesterase inhibitor in air by loss of acetylcholinesterase/indoxyl acetate fluorescence signal. Conditions: Example 4, FIG. 8: aerosol from 2.5 ppm paraoxon solution; 4 minute cycles; polyethylene disk 15-45 um; clean-air cycle around 14,000.
Description: In this embodiment of the invention, the device and method operates in repetitive cycles ranging from 30 seconds to 10 minutes. […] The cycle shown in FIG. 2 took 5 minutes for completion. The enzyme and substrate addition took 5 seconds, the sampling time took 115 seconds, the reading took 85 seconds and was concluded by the alarm status update at the end which requires only a fraction of a second, and the rinse took 90 seconds. Each cycle concludes with the rinse step where components of the reaction are rinsed off the surface of the collection matrix and preferably from the reaction zone and the surface of the collection matrix, in order to set the stage for a new sampling cycle.
FIGS. 3a and 3b illustrate the steps of one 5 minute cycle with no detection event in more detail. […] Particles, aerosols and vapor from the environment are collected on the impactor disk or surface of the collection matrix. During this step one nebulizer is activated adding aerosolized enzyme visualized in FIGS. 3a and 3b by clam shaped symbols. The enzyme is being accumulated on the impactor disk/surface of the collection matrix. […] During the next step 4) 85 seconds reading, the catalytic reaction of the enzyme substrate complex is monitored with an optical system. […] During the reading period, the air sampling pump is typically switched off. […]
A short description of experiment [3]: Air monitoring device: detection of aerosolized enzyme protein by fluorescence from indoxyl acetate substrate. Conditions: Example 6, FIG. 10: enzyme solution 3 mg/ml aerosolized; 3 minute cycles; cycles four, five and six; clean air amplitude 0. The procedure:
Example 6 provides a method of this invention for the detection of a protein in the air. The device in this example was operated continuously in 3 minute cycles. Each cycle consists of a 30 second sampling period at a flow rate of 1 liter per minute, a 5 second substrate addition step, a 85 second reading period and a 60 second rinse step. The consumables/reagents consisted of a) 12.5 mg/ml indoxyl acetate substrate solution in isopropyl alcohol (IPA), diluted in buffer 100 fold and b) 100 mM buffer at pH 7.0. This example used a polyethylene disk with a pore size of 15-45 um and a thickness of 1.6 mm as the impactor disk. The substrate aerosol was generated using 5×500 ms pulses every second for 5 seconds total. The rinse step at conclusion of the cycle was accomplished by continuously aerosolizing buffer for about 60 seconds.
Specifically, acetylcholinesterase enzyme solution was aerosolized into a plastic test chamber at a concentration of 3 mg/ml. The sampled air was contaminated with enzyme two times at intervals indicated by solid triangles (beginning) and white triangles (end). As set forth in FIG. 10, the device indicated the presence of the target protein by an amplitude increase to at least 2,000 fluorescent units in cycles four, five and six compared to an amplitude of 0 in cycles one, two and three during the time clean air was sampled.

T1 sequence (P22303 32-614, species assumed): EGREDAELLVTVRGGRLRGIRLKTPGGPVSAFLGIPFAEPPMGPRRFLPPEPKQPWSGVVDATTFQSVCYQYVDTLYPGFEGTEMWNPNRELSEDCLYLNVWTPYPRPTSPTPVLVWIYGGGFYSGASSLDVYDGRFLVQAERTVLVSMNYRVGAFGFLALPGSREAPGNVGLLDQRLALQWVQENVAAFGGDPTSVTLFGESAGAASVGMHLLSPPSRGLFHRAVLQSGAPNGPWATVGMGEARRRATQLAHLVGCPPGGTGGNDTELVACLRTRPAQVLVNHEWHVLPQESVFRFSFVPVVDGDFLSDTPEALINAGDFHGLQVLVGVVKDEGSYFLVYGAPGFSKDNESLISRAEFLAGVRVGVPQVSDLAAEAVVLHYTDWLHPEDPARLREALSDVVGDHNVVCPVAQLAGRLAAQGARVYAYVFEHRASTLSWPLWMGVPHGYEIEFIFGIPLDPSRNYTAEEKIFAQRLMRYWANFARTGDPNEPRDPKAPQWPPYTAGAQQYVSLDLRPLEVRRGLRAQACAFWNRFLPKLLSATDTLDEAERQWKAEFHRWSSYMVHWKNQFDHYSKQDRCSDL

Take indoxyl acetate: the amplitude increase entry in experiment [1] is “at least 3,000 fluorescent units”.
For the compound `CCOP(=O)(OCC)Oc1ccc([N+](=O)[O-])cc1` [paraoxon], in experiment [2], the signal amplitude result was “around 4,000 fluorescent units”.
Consider acetylcholinesterase, for which, in experiment [3], the amplitude increase entry is given as “at least 2,000 fluorescent units”.
